This is an account of results in patent US6469062B2, “Use of 15-keto-prostaglandins in promoting bile secretion” (Sucampo A.G., priority 2000, dated 2002).

One experiment has as its system dogs and cats. As to conditions: cited from earlier work.
Experiment [1] concerns porcine of which liver was replaced by transplantation. The note with it: intraportal administration; cited from earlier work.
The next experiment relates to implanted liver. As to conditions: added to liver preservation solution; rat liver transplantation model; cited from earlier work.
The subject of another experiment is normal rats. Kind of experiment: Test Example 1: bile flow in normal rats after oral administration. It is filed as in vivo, rat. The note with it: 100 μg/kg orally 3 times a day for 7 days; bile collected on day 8, 1 to 2 hours after cannulation; vs vehicle. As to the method: Male Wister rats were used. 100 μg/kg of test compound 1 (13,14-dihydro-15-keto-16, 16-difluoro-18(S)-methyl-prostaglandin E1) was administered orally to the test group animals (n=8) 3 times a day for 7days. To the control group animals (n=7), the same volume of the vehicle, i.e. 0.01% polysorbate 80, 0.5% ethanol in distilled water was administered. At the next day after the final administration (day 8), the common bile duct of the respective rat was cannulated under ether anesthesia and the rat was placed in ball man gauge for 1 hour to recover from anesthesia. The bile discharged over one hour time period, i.e. from 1 to 2 hours of the cannulation, was collected and determined bile flow.

A further experiment relates to perfused rat liver. The experiment is described as follows: Test Example 2: bile flow of isolated perfused rat liver. On the procedure: Male Wister rats were used. Each rat was cannulated for collection of bile under pentobarbital sodium anesthesia. A catheter was inserted and fixed in the portal vein. Krebs-Ringer solution saturated with 95% O2 and 5% CO2 (pH 7.4, 37° C.) was infused via the catheter at a constant flow rate of 4.0 ml/min/g liver weight by means of peristaltic pump to perfuse the liver. The liver was removed under perfusion. In case where the bile secretion was necessary to maintain being the physiological level, the liver was perfused with Krebs-Ringer solution supplemented with sodium taurocolate (30 μmol/l). For the test group animals, the test compound 1 was added to the Krebs-Ringer solution. Bile of the each animals including test and control groups was collected in every 5 minutes.

In experiment [2] the test system is anoxia/re-oxygenation perfused rat liver. Kind of experiment: Test Example 3: bile flow recovery of anoxia/re-oxygenation perfused rat liver. As to conditions: 10 μM added at re-oxygenation after 20 minutes of anoxia; vs vehicle. As to the method: Isolated perfused liver sample was prepared by the same manner as described in the test example 2. Each livers of test and control groups was perfused with Krebs-Ringer solution saturated with 95% N2 and 5% CO2 for 20 minutes to expose the liver oxygen-free condition. After that, Krebs-Ringer solution saturated with 95% O2 and 5% CO2 was perfused to re-oxygenize the liver. At the re-oxygenization step, 10 μM of the test compound 1 was added to the Krebs-Ringer solution for the test group.

Experiment [3] concerns rat isolated liver. The experiment is described as follows: Test Example 4: bile flow of rat isolated liver, compound added to preservation solution. The note with it: 10 μM added to U-W preservation solution, 4° C., 16 hours storage; 40 minutes reperfusion. The text has this:
Male Wister Rats were anesthetized with pentobarital sodium and hepatic-portal region was exposed by abdominal midline incision. The common bile duct was cannulated and the portal stem was inserted with a 19 gauge surflo® needle equipped with a three way stopcock. […] Treitz' ligament, the ligament around the liver, and diaphragm were cut and the liver was removed to the outside of the body and subjected to extracoporeal perfusion. The liver was subjected to a fifteen minutes of pre-perfusion until its oxygen consumption achieved to constant and then, the perfusate was exchanged with University of Wisconsin solution (U-W solution) at 4° C. Immediately after finish of the exchange, the liver connected with the three-way stopcock was removed from the perfusion cycle and the inlet was clamped. Then the liver was putted into the U-W solution at the same temperature and stored for 16 hours. […] During the reperfusion period, bile flow was determined every 5 minutes.
In the above perfusion protocol, 10 μM of test compound 1 or test compound 2 (13,14-dihydro-15-keto-16,16-difluoro-17(R)-methyl-prostaglandin E1) were added to the U-W solution to determine the effects of these drugs on recovery of bile flow.

For experiment [4], the system named is rat isolated liver. Kind of experiment: Test Example 5: bile flow of cold preserved rat isolated liver, compound added to rinse solution. As to conditions: added to Krebs-Ringer rinse solution perfused for 40 minutes after 16-hour cold storage. On the procedure:
The perfusion protocol of the Test Example 4 was repeated except for the test compound 1 and the test compound 2 were added to the Krebs-Ringer solution, i.e. the rinse solution perfused for 40 minute's to determine the recovery of the bile flow.

With `CCCCC[C@H](O)/C=C/[C@H]1C=CC(=O)[C@@H]1CCCCCCC(=O)O` [PGA1], the cholagogic effect entry in the experiment on dogs and cats is “cholagogic effect”.
Regarding `CCCCC[C@H](O)/C=C/[C@H]1[C@H](O)CC(=O)[C@@H]1CCCCCCC(=O)O` [PGE1, prostaglandin E1], the cholagogic effect entry in the experiment with dogs and cats is on record as “cholagogic effect”. Moreover, the bile flow entry in experiment [1] is “increased the bile flow”.
As for `CCCCC[C@H](O)/C=C/[C@H]1[C@H](O)CC(=O)[C@@H]1C/C=C\CCCC(=O)O` [PGE2], in the experiment with dogs and cats, the cholagogic effect result was “cholagogic effect”.
On to `CCCCC[C@H](O)/C=C/[C@@H]1[C@@H](C/C=C\CCCC(=O)O)[C@@H](O)C[C@H]1O` [PGF2a], for which the cholagogic effect result in the experiment with dogs and cats was “cholagogic effect”.
Regarding `CCCC[C@H](C)C[C@H](O)/C=C/[C@@H]1C2CC(CCCCC(=O)O)=CC2C[C@H]1O` (stereo partly shown) [TEI-9063], the “bile producing activity of the implanted liver” value with implanted liver was “improved bile producing activity”.
For `CCCCC[C@H](O)/C=C/[C@@H]1[C@H]2C/C(=C/CCCC(=O)O)O[C@H]2C[C@H]1O` [prostacyclin], the cholagogic effect entry in the experiment on dogs and cats is “cholagogic effect”.
On to `CC[C@H](C)CC(F)(F)C(=O)CC[C@H]1[C@H](O)CC(=O)[C@@H]1CCCCCCC(=O)O` [test compound 1, 13,14-dihydro-15-keto-16,16-difluoro-18(S)-methyl-prostaglandin E1], for which the “normal rat bile flow” value with normal rats is “significantly increased”. The “bile flow of the perfused rat liver” value with perfused rat liver (compound added to Krebs-Ringer perfusate) was “significantly increased bile flow”. In the experiment with perfused rat liver (under the presence of bile acid (sodium taurocolate 30 μmol/l)), the “cholagogic effect, dose dependence” value is reported as “dose dependent cholagogic effect”. Further, the “bile flow, presence (TC(+)) or absence (TC(−)) of bile acid” value in the experiment on perfused rat liver (with or without bile acid in the perfusate) is given as “increased the bile flow irrespective of the presence or absence of bile acid”. Further, the “bile flow recovery after anoxia/re-oxygenation” value in experiment [2] is “significantly increased the bile flow”. Also, in the experiment with rat isolated liver [3], the “bile flow at the reperfusion step” value is “increased the bile flow at the reperfusion step significantly”. Moreover, the “bile flow in reperfusion of cold preserved rat liver” value in the experiment on rat isolated liver [4] is on record as “significantly increased”.
In the case of `CCCC(C)C(F)(F)C(=O)CCC1C(O)CC(=O)C1CCCCCCC(=O)O` [test compound 2, 13,14-dihydro-15-keto-16,16-difluoro-17(R)-methyl-prostaglandin E1], the “bile flow at the reperfusion step” value in the experiment with rat isolated liver [3] was “increased the bile flow at the reperfusion step significantly”. In addition, in the experiment with rat isolated liver [4], the “bile flow in reperfusion of cold preserved rat liver” value is listed as “significantly increased”.
